Where “and” joins values, the source holds several entries; their conditions need not be identical. Identical values can stand only once. After the bases stand the sugars from the 5' end (letter, count) and the backbone: PS all phosphorothioate, else s phosphorothioate and o phosphodiester by linkage. Methylation of C is not given here. k = constrained ethyl (cEt); d = 2'-deoxy (DNA)

For the data set, the target named is MALAT1. Conditions: ASO, A431, 0.005 µM.

Regarding AACATATTTTGCCCCC (sugars k3 d10 k3, PS), the target mRNA inhibition came out at 22%.

On to GATCTGGTCCATTAAA (sugars k3 d10 k3, PS), for which the target mRNA inhibition was 25%. On to ACCGATTATGGATCAT (sugars k3 d10 k3, PS), for which the target mRNA inhibition was 36%. To CCAATATTTGCCCCTC (sugars k3 d10 k3, PS) belongs 40%. To CACTCTGATCTGCGGC (sugars k3 d10 k3, PS) belongs -28%. To GGCTGGTTATGACTCA (sugars k3 d10 k3, PS) belongs 40%. On to TTCGCTTTTATTCTGC (sugars k3 d10 k3, PS), for which the target mRNA inhibition was 69% and 88%.

Take CTACTTTAAGCCTTCG (sugars k3 d10 k3, PS): the target mRNA inhibition worked out at 31%. To CTAAGATTGTAAGCAT (sugars k3 d10 k3, PS) belongs 28%.

In the case of CCCCCCCAAGATTGCC (sugars k3 d10 k3, PS), the target mRNA inhibition was -16%. In the case of GCGGGATCAGAACAGT (sugars k3 d10 k3, PS), the target mRNA inhibition worked out at 40%. On to AACCGATTATGGATCA (sugars k3 d10 k3, PS), for which the target mRNA inhibition is 49%. To CAGGACTTGGCAGTCT (sugars k3 d10 k3, PS) belongs 14%. Consider TGGTGAATTCAACTGG (sugars k3 d10 k3, PS), for which the target mRNA inhibition came to 33%. In the case of ATCTAAAAGCATTGCC (sugars k3 d10 k3, PS) it was 18%; in that of GCAAAATGGCGGACTT (sugars k3 d10 k3, PS), -4%. To CAATCCACTTGATCCC (sugars k3 d10 k3, PS) belongs 56% and 44%. To TAGCTTCCTTCACCAA (sugars k3 d10 k3, PS) belongs -1%.

With ACTTACTGGTTTAAGT (sugars k3 d10 k3, PS), the target mRNA inhibition was -3%. In the case of ACCCACCAAAGACCTC (sugars k3 d10 k3, PS) it was 9%; in that of TTAATGCTAGTCCTCA (sugars k3 d10 k3, PS), 39%; in that of GCCTACCGCACAGCTC (sugars k3 d10 k3, PS), 26%.

For the sequence TCATCAAACACCTCAC (sugars k3 d10 k3, PS), the target mRNA inhibition was -8%.

Turning to ATGCAATACTGCAGAT (sugars k3 d10 k3, PS), the target mRNA inhibition stood at 1%.

With TTTATCACTCAGCTGG (sugars k3 d10 k3, PS), the target mRNA inhibition worked out at 53%.

For the sequence ATAGTTCAACCCACCA (sugars k3 d10 k3, PS), the target mRNA inhibition came to 21%. To CCAAGCTACTGGCTGC (sugars k3 d10 k3, PS) belongs 23%; to GGGAAAAGTGGTTGCC (sugars k3 d10 k3, PS), 9%; to GAGTTTGAGTGGTTTT (sugars k3 d10 k3, PS), 26%. In the case of CAGAGTTTGAGTGGTT (sugars k3 d10 k3, PS) it was 16%; in that of ACCACCTGGAATGGCC (sugars k3 d10 k3, PS), 15%; in that of CAGGAGTGCCAACCAC (sugars k3 d10 k3, PS), -2%.

On to TTCAAGCATTCCTTCG (sugars k3 d10 k3, PS), for which the target mRNA inhibition stood at 62%. To ATTTTTGAAGCATACC (sugars k3 d10 k3, PS) belongs 41% and 57%; to CGGAAATCGGCCTACG (sugars k3 d10 k3, PS), 30%; to TTAATGTCAGCCCAGT (sugars k3 d10 k3, PS), 37%. To ATATTGCCGACCTCAC (sugars k3 d10 k3, PS) belongs 26%; to AGTAGACCAACTAAGC (sugars k3 d10 k3, PS), 25%. To CCCCAGTCCTTTACAG (sugars k3 d10 k3, PS) belongs 9%. For CATGAGTATAAGCCTG (sugars k3 d10 k3, PS), the target mRNA inhibition is 50%.

Regarding AATAGTACTATAGCAT (sugars k3 d10 k3, PS), the target mRNA inhibition was 15%. In the case of TTATCTAAATACCACC (sugars k3 d10 k3, PS) it was 2%; in that of CTTTAAGCCTTCGGTG (sugars k3 d10 k3, PS), -3%.

Take ACTTTTAATCATACTC (sugars k3 d10 k3, PS): the target mRNA inhibition stood at 21%. Turning to GCCTATCTTCTCCAGT (sugars k3 d10 k3, PS), the target mRNA inhibition worked out at 27%. In the case of TGATAACGAAGAGATA (sugars k3 d10 k3, PS) it was 15%. To CTTCCCGTACTTCTGT (sugars k3 d10 k3, PS) belongs 43%. In the case of CTTTAAATTGGTAGCT (sugars k3 d10 k3, PS) it was 45%; in that of CAACAGCACAGCGGTA (sugars k3 d10 k3, PS), -5%; in that of TACACTCACTAGAACA (sugars k3 d10 k3, PS), 3%. For ACAAGTTACATGTTCC (sugars k3 d10 k3, PS), the target mRNA inhibition amounted to 21%. To GTCTAGGATCCTCTAC (sugars k3 d10 k3, PS) belongs 14%.

As to CCACTCGCTTTCCCTG (sugars k3 d10 k3, PS), the target mRNA inhibition turned out to be 41%. To GAAGAGATACCTGTCT (sugars k3 d10 k3, PS) belongs -22%; to CGCACGGAAATTTTTC (sugars k3 d10 k3, PS), -17%. In the case of CGTGTGGAAAGATTTG (sugars k3 d10 k3, PS) it was 0%; in that of CCCCAATCAAGATTTT (sugars k3 d10 k3, PS), -21%.

On to CAGCACAGCGGTACAC (sugars k3 d10 k3, PS), for which the target mRNA inhibition was 7%.

Regarding TATTCTTTTCTTCGCC (sugars k3 d10 k3, PS), the target mRNA inhibition worked out at 49%. To CAACTCGCATCACCGG (sugars k3 d10 k3, PS) belongs 9%.

Take TGCTCCTCAGTCCTAG (sugars k3 d10 k3, PS): the target mRNA inhibition was found to be 26%. In the case of GCTTTCCCTGTGGCCT (sugars k3 d10 k3, PS) it was 10%. In the case of ACTCGCATCACCGGAA (sugars k3 d10 k3, PS), the target mRNA inhibition was 15%.

As to GTTAAAAACTTAACGC (sugars k3 d10 k3, PS), the target mRNA inhibition worked out at 4%. In the case of TGAGTGAAGTGTACTA (sugars k3 d10 k3, PS) it was 42%; in that of CACCCAAAAGCCCTCT (sugars k3 d10 k3, PS), 17%; in that of AGCGGTACACTCCTTC (sugars k3 d10 k3, PS), 50% and 43%. In the case of ATTACCTAAACCCACC (sugars k3 d10 k3, PS) it was -10%. For TACCACTCCCAATTAA (sugars k3 d10 k3, PS), the target mRNA inhibition is 12%. In the case of TAAGATAGCAGCACAA (sugars k3 d10 k3, PS) it was -3%; in that of TTAAGAACTCCACAGC (sugars k3 d10 k3, PS), 46%; in that of CACTTTAGAGGCTTTT (sugars k3 d10 k3, PS), 42%.

As to CCGGAAATCGGCCTAC (sugars k3 d10 k3, PS), the target mRNA inhibition was 20%. In the case of GTCAATTTATAGACCC (sugars k3 d10 k3, PS) it was 18%. To GTTACATGTTCCCACC (sugars k3 d10 k3, PS) belongs 37%; to GCAAATCGCCATGGAA (sugars k3 d10 k3, PS), 21%. In the case of ACCGCTTGAGATTTGG (sugars k3 d10 k3, PS) it was 32% and 41%; in that of GCTCTATACTTTGAAG (sugars k3 d10 k3, PS), 51%. TTTTAAAAAGGCTCGA (sugars k3 d10 k3, PS): the target mRNA inhibition was 12%. In the case of TCTGATCATAATCTCC (sugars k3 d10 k3, PS) it was 39%.

For the sequence ACTCAGCCTTTATCAC (sugars k3 d10 k3, PS), the target mRNA inhibition was -5%. To ATATTTGCCCCTCCCC (sugars k3 d10 k3, PS) belongs 27%; to TACTTGTCTTAGCTTG (sugars k3 d10 k3, PS), 51%. In the case of TTGACCTTAGGATAAT (sugars k3 d10 k3, PS) it was 47%. To AGATTGTAAGCATTTA (sugars k3 d10 k3, PS) belongs 42%. On to TAAACTCACTGCAAGG (sugars k3 d10 k3, PS), for which the target mRNA inhibition was 14%. Consider CAGCAGTAGGGCTTCT (sugars k3 d10 k3, PS), for which the target mRNA inhibition is -1%. To GGCTTTAAATGACGCA (sugars k3 d10 k3, PS) belongs 17%; to CTTTAAATGACGCAAT (sugars k3 d10 k3, PS), 35%; to CAGTACTGCATTTACT (sugars k3 d10 k3, PS), 20%. In the case of GCAAGTTAAACTTATC (sugars k3 d10 k3, PS) it was 42%.

As for TAGTTTACCACCTTTT (sugars k3 d10 k3, PS), the target mRNA inhibition was found to be 15%.

Take ATTCGATCACCTTCCG (sugars k3 d10 k3, PS): the target mRNA inhibition was found to be 19%. To ATAGTTTACCACCTTT (sugars k3 d10 k3, PS) belongs 39%.

AGCAGCGGGATCAGAA (sugars k3 d10 k3, PS): the target mRNA inhibition came to 19%. Turning to CAGGGTTATGCTTATT (sugars k3 d10 k3, PS), the target mRNA inhibition is 75% and 66%.

For the sequence CCAACTTGGAAGTTGA (sugars k3 d10 k3, PS), the target mRNA inhibition worked out at 31%. Regarding ATCCTGAATGGCTTCA (sugars k3 d10 k3, PS), the target mRNA inhibition was 0%. In the case of GTGTTATGCCTGGTTA (sugars k3 d10 k3, PS) it was 2%.

The values are drawn from the OligoGym collection.
